Laboratory results from patent US20240058332A1, “CRAC CHANNEL INHIBITOR COMPOSITIONS” (CalciMedica, Inc., priority 2017, published 2024).
Converted amounts (≈) assume the structure as drawn. Each block holds one molecule with its values, some of them ahead of it.

Experiments:
Type in all cases: physicochemical
[1] = Initial formulations: Compound A saturation assay (HPLC) and appearance in template emulsion vehicles; details: emulsion composition containing ≥10% egg lecithin, aqueous with cosolvent or surfactant or cyclodextrin, thermodynamic from solid
Procedure: Ten compositions were prepared using various template compositions, containing lecithin, soybean oil (SBO) or medium chain triglycerides (MCT), glycerin or sucrose (non-ionic tonicity agent), edetate disodium di-hydrate (EDTA, chelating agent) in deionized water. Compound A (Form A) was added and agitated to reach solubility equilibrium at ambient room temperature. Each formulation was prepared in the following steps: Compound A (5 mg) was dispersed in each template vehicle. The formulation were then homogenized and at room temperature for >24 h and then passed sample through 0.45 μm filter for analysis (HPLC).

[2] = Stability of Formulation F-9 (small scale), 2 weeks at 2-8° C. and 25° C.; details: F-9 emulsion, after 2 weeks at 2-8° C. and 25° C.
Procedure: Procedures: Compound A (Form A) was added to F-9 vehicle containing MCT/Egg/lecithin/Sucrose/EDTA in a plastic tube. The formulation was mixed until uniform and complete drug dissolution. The emulsion was sterilized through 0.2 μm membrane filter. The samples were placed at 2-8° C. and 25° C. for stability evaluation for 2 weeks. The samples were tested for appearance, pH, Compound A assay and purity by HPLC, mean droplet size and globule size distribution in lipid injectable emulsions (USP<729>) and the results are shown in Table 17.

[3] = Emulsion stability 1 week at 40° C. (appearance, assay, Z-Ave, PFAT5); details: emulsions at 2-8° C. and after 8 days at 40° C.
Procedure: Procedure: • Prepared all vehicles by mixing lipid and aqueous phase ingredients and homogenized. • Added Compound A (Form A) at 0.3% concentration in each vehicle. • Homogenized and mixed overnight until uniform or achieved equilibrium. • Filtered emulsion through 0.45 μm Nylon membrane filter. • Evaluated appearance, drug concentration by HPLC assay, average droplet size and PFAT5. • Selected the top 5-10 formulations achieving acceptance criteria initially. • Placed at 40° C. for up to 2 weeks to monitor emulsion stability. • Selected the top 3-5 formulations meeting the proposed requirements after 1-2 weeks at 40° C.
Methods: • Appearance: Record visual observation • Z-ave (nm): Measure mean oil droplet size by ZetaSizer (Malvern Instrument). Dilute 50 μL sample with 950 μL DI water at room temperature • Assay (%): Use the current HPLC method • Spin-X: Pass 0.5 mL emulsion through CoStar® Spin-X 0.2 μm Nylon filter (0.7 cm^2 surface area) at 3,144 G-force centrifuge for 60 sec at ambient room temperature. Evaluate completeness of emulsion passing through the filter.

[4] = Solubility of Compound A in F57, Method 6: Form B seeds added to GMP batch; details: F57 emulsion (GMP batch), 2 °C, thermodynamic from solid; 2-8° C.; read-out: API solubility in F57
Excerpt: (§1) To investigate the causes of precipitation and determine the Compound A solubility in F57 vehicle, the following seven (7) methods were applied to accurately determine solubility of Compound A in F57: • Method 1: Formulate Compound A in F57 at varied concentrations using GMP grade of Compound A and excipients with the regular process • Method 2: Formulate Compound A in F57 by introducing Compound A into a pre-formed F57 vehicle • Method 3: Observe Compound A in the previously made batches which already had extended incubation • Method 4: Conduct “top-down” and a “bottom-up” solubility studies in F57 vehicle • Method 5: Agitate Compound A GMP batch of F57 to promote the dissolution-precipitation equilibrium • Method 6: Add extra Form B seeds to Compound A GMP batch of F57 to promote Compound A crystal growth and precipitation • Method 7: Add Form B seeds to the samples made in method 1 to promote Compound A crystal growth and precipitation
For solubility determination, a F57 sample (usually about 0.5 mL) was filtered through a 0.22 μm centrifuge filter (Costar Spin-X®+, P/N8169), the filtrate (free of any solid particle) was collected, diluted with isopropanol, and tested for Compound A concentration using the following HPLC method. […]

[5] = Solubility of Compound A in F57, summary of all 7 methods
Excerpt: The term “solubility” used herein is defined as Compound A concentration where Compound A has reached a dissolution-precipitation equilibrium in F57 at a selected temperature. […] On the other hand, if Compound A concentration is higher than the solubility, Compound A is expected to precipitate over time.
as §1
(§2) For solubility determination, a F57 sample (usually about 0.5 mL) was filtered through a 0.22 μm centrifuge filter (Costar Spin-X®+, P/N8169), the filtrate (free of any solid particle) was collected, diluted with isopropanol, and tested for Compound A concentration using the following HPLC method. Dissolution-precipitation equilibrium is reached once the measured filtrate concentration is constant, and that concentration can be regarded as the solubility.
Table 40 summarizes the general conditions used in the seven methods to promote the dissolution-precipitation equilibrium. Detailed procedures are described in each method section.
The general observation and findings by all 7 methods are summarized in the table 50, according to the detailed observation and discussion pertaining to each method.

[6] = DVS isotherm (hygroscopicity) of Form A
Excerpt: The crystal size of Form A is in the range of ˜few μm to about 50 μm.

[7] = Solubility estimation of freebase Form A in 20 solvents at RT
Procedure: The solubility of N-(5-(6-chloro-2,2-difluorobenzo[d][1,3]dioxol-5-yl)pyrazin-2-yl)-2-fluoro-6-methylbenzamide freebase Form A was determined in 20 solvents at RT. These experiments were conducted by adding approximately 2 mg of sample into a 3-mL glass vial. Solvents in Table 14 were then added in 50 μL increments into the vials until the solids were dissolved or a total volume of 2 mL was reached. The solubility estimation was used to guide the solvent selection in polymorph screening. N-(5-(6-chloro-2,2-difluorobenzo[d][1,3]dioxol-5-yl)pyrazin-2-yl)-2-fluoro-6-methylbenzamide freebase Form A is soluble in MeOH, Acetic acid, Acetonitrile, Acetone, MIBK, EtOAc, IPAc, MTBE, THF, 2-MeTHF, 1,4-Dioxane, NMP, DMSO, DCM, Toluene and DMAc (>18.0 mg/mL), while it is insoluble in Heptane and H2O (<1.3 mg/mL).

[8] = Solubility of Compound A in F57, Method 4: top-down method; details: for concentration in F57 vehicle: Method 4 top-down, 2-8° C.; for strength dissolved into F57 vehicle: top-down approach; for concentration on storage: top-down, after 4 weeks' storage at 2-8° C.
Procedure: as §2
The top-down method used high-energy homogenization to dissolve a set amount of Compound A (Form A) in the F57 vehicle to achieve supersaturation, allowing precipitation to take place over time to reach a dissolution-precipitation equilibrium in F57. The solubility of Compound A in the F57 vehicle was then determined.
(§3) The bottom-up method used a gentle mixing to slowly dissolve Compound A (Form A) in the F57 vehicle to reach the dissolution-precipitation equilibrium in F57. The solubility of Compound A in the F57 vehicle was then determined. • Top-down method: Add form A and B API, each into a separate tube containing the F57 vehicle, then apply extensive energy to each tube by homogenizer (BB, 600 sec) to obtain a clear solution, and store each tube at 2-8° C. • Bottom-up method: Add form A and B API, each into a separate tube containing the F57 vehicle, then gently shake each tube on a platform shaker at 2-8° C. • Pull sample aliquots at 1 day, 2 days, 1 week and 4 weeks to test for appearance and concentration.

[9] = Solubility of Compound A in F57, Method 4: bottom-up method; details: 2-8° C.; for concentration in F57 vehicle: Method 4 bottom-up
Procedure: as §2, §3

[10] = as above; details: for concentration in F57 vehicle: Method 4 bottom-up

solubility [1]: ≥ 2400 µg/mL
appearance and HPLC assay on stability [2]: remained unchanged
% purity on stability [3]: 99.9%
solubility [4]: 1800 to 1900 µg/mL (≈ 4.27 to 4.5 mM)
solubility ([5]; F57, thermodynamic from solid, in F57, Method 2, Equilibrium reached, read-out: Measured Solubility): 1800 to 1900 µg/mL (≈ 4.27 to 4.5 mM)
solubility ([5]; F57, thermodynamic from solid, in F57, Method 4, Equilibrium reached, read-out: Measured Solubility): 1800 µg/mL (≈ 4.27 mM)
solubility ([5]; F57, thermodynamic from solid, in F57, Method 5, Equilibrium reached, read-out: Measured Solubility): 1800 to 1900 µg/mL (≈ 4.27 to 4.5 mM)
solubility ([5]; F57, thermodynamic from solid, in F57, Method 6, Equilibrium reached, read-out: Measured Solubility): 1800 to 1900 µg/mL (≈ 4.27 to 4.5 mM)
solubility ([5]; F57, thermodynamic from solid, in F57, Method 7, Equilibrium reached, read-out: Measured Solubility): 1800 to 1900 µg/mL (≈ 4.27 to 4.5 mM)
SMILES: Cc1cccc(F)c1C(=O)Nc1cnc(-c2cc3c(cc2Cl)OC(F)(F)O3)cn1 [Compound A, N-(5-(6-chloro-2,2-difluorobenzo[d][1,3]dioxol-5-yl)pyrazin-2-yl)-2-fluoro-6-methylbenzamide]

hygroscopicity ([6]; DVS isotherm plot): not hygroscopic
water uptake level ([6]; DVS isotherm, at 80% RH): < 0.03%
solubility ([7]; organic solvent or mixture, thermodynamic from solid, 1,4-Dioxane, read-out: Solubility): > 24000 µg/mL
solubility ([7]; organic solvent or mixture, thermodynamic from solid, 2-MeTHF, read-out: Solubility): > 26000 µg/mL
solubility ([7]; organic solvent or mixture, thermodynamic from solid, Acetic acid, read-out: Solubility): > 22000 µg/mL
solubility ([7]; organic solvent or mixture, thermodynamic from solid, Acetone, read-out: Solubility): > 22000 µg/mL
solubility ([7]; organic solvent or mixture, thermodynamic from solid, Acetonitrile, read-out: Solubility): > 22000 µg/mL
solubility ([7]; organic solvent or mixture, thermodynamic from solid, DCM, read-out: Solubility): > 22000 µg/mL
solubility ([7]; organic solvent or mixture, thermodynamic from solid, DMAc, read-out: Solubility): > 22000 µg/mL
solubility ([7]; organic solvent or mixture, thermodynamic from solid, DMSO, read-out: Solubility): > 20000 µg/mL
solubility ([7]; organic solvent or mixture, thermodynamic from solid, EtOAc, read-out: Solubility): > 22000 µg/mL
solubility ([7]; organic solvent or mixture, thermodynamic from solid, Heptane, read-out: Solubility): < 1300 µg/mL
solubility ([7]; organic solvent or mixture, thermodynamic from solid, IPAc, read-out: Solubility): > 24000 µg/mL
solubility ([7]; organic solvent or mixture, thermodynamic from solid, MIBK, read-out: Solubility): > 22000 µg/mL
solubility ([7]; organic solvent or mixture, thermodynamic from solid, MTBE, read-out: Solubility): > 18000 µg/mL
solubility ([7]; organic solvent or mixture, thermodynamic from solid, MeOH, read-out: Solubility): > 18000 µg/mL
solubility ([7]; organic solvent or mixture, thermodynamic from solid, NMP, read-out: Solubility): > 26000 µg/mL
solubility ([7]; organic solvent or mixture, thermodynamic from solid, THF, read-out: Solubility): > 20000 µg/mL
solubility ([7]; organic solvent or mixture, thermodynamic from solid, Toluene, read-out: Solubility): > 22000 µg/mL
solubility ([7]; organic solvent or mixture, thermodynamic from solid, in Heptane and H2O, read-out: solubility (insoluble)): < 1300 µg/mL
solubility ([7]; organic solvent or mixture, thermodynamic from solid, in MeOH, Acetic acid, Acetonitrile, Acetone, MIBK, EtOAc, IPAc, MTBE, THF, 2-MeTHF, 1,4-Dioxane, NMP, DMSO, DCM, Toluene and DMAc, read-out: solubility (soluble)): > 18000 µg/mL
solubility ([7]; water, thermodynamic from solid, H2O, read-out: Solubility): < 1000 µg/mL
concentration in F57 vehicle ([8]; 1 wk): 2680 µg/mL
concentration in F57 vehicle ([8]; 4 wk): 2640 µg/mL
concentration in F57 vehicle ([8]; 1 day): 2690 µg/mL
concentration in F57 vehicle ([8]; 2 day): 2650 µg/mL
strength dissolved into F57 vehicle [8]: 2.69 mg/mL
concentration on storage [8]: remained the same
concentration in F57 vehicle ([9]; 1 wk): 1700 µg/mL
concentration in F57 vehicle ([9]; 4 wk): 1710 µg/mL
concentration in F57 vehicle ([9]; 1 day): 1200 µg/mL
concentration in F57 vehicle ([9]; 2 day): 1530 µg/mL
dissolution rate ([9]; bottom-up, emulsion vehicle): faster dissolution rate
solubility ([5]; F57 emulsion, 2 °C, thermodynamic from solid, 2-8° C., all methods, read-out: solubility in F57): 1800 to 1900 µg/mL (≈ 4.27 to 4.5 mM)
solubility at 7 weeks ([10]; F57 emulsion vehicle, thermodynamic from solid, bottom-up, F57 vehicle, 2-8° C., in 7 weeks): 1800 µg/mL (≈ 4.27 mM)
concentration in F57 vehicle ([10]; 2-8° C., 7 wk): 1850 µg/mL
concentration in F57 vehicle ([10]; 25° C., 1 wk): 2190 µg/mL
concentration in F57 vehicle ([10]; 25° C., 4 wk): 2170 µg/mL
concentration in F57 vehicle ([10]; 25° C., 1 day): 2180 µg/mL
concentration in F57 vehicle ([10]; 25° C., 2 day): 2240 µg/mL
SMILES: Cc1cccc(F)c1C(=O)Nc1cnc(-c2cc3c(cc2Cl)OC(F)(F)O3)cn1 [Form A, N-(5-(6-chloro-2,2-difluorobenzo[d][1,3]dioxol-5-yl)pyrazin-2-yl)-2-fluoro-6-methylbenzamide]

concentration in F57 vehicle ([8]; 1 wk): 2970 µg/mL
concentration in F57 vehicle ([8]; 4 wk): 2970 µg/mL
concentration in F57 vehicle ([8]; 1 day): 3000 µg/mL
concentration in F57 vehicle ([8]; 2 day): 2940 µg/mL
strength dissolved into F57 vehicle [8]: 3.00 mg/mL
concentration on storage [8]: remained the same
concentration in F57 vehicle ([9]; 1 wk): 1630 µg/mL
concentration in F57 vehicle ([9]; 4 wk): 1660 µg/mL
concentration in F57 vehicle ([9]; 1 day): 750 µg/mL
concentration in F57 vehicle ([9]; 2 day): 1140 µg/mL
concentration in F57 vehicle ([10]; 2-8° C., 7 wk): 1800 µg/mL
concentration in F57 vehicle ([10]; 25° C., 1 wk): 2150 µg/mL
concentration in F57 vehicle ([10]; 25° C., 4 wk): 2040 µg/mL
concentration in F57 vehicle ([10]; 25° C., 1 day): 1300 µg/mL
concentration in F57 vehicle ([10]; 25° C., 2 day): 1730 µg/mL
solubility ([10]; bottom-up, F57 vehicle, 2-8° C., in 7 weeks): 1800 µg/mL (≈ 4.27 mM)
SMILES: Cc1cccc(F)c1C(=O)Nc1cnc(-c2cc3c(cc2Cl)OC(F)(F)O3)cn1 [Form B, N-(5-(6-chloro-2,2-difluorobenzo[d][1,3]dioxol-5-yl)pyrazin-2-yl)-2-fluoro-6-methylbenzamide]
